From the NIST ThermoML archive (doi:10.1016/j.jct.2015.02.009)

Columns and labels:
[1] = Molar enthalpy of transition or fusion; conditions: Crystal 1; Adiabatic calorimetry
[2] = for molar entropy: 101.33 kPa, Vacuum adiabatic calorimetry; for Triple point temperature: Adiabatic calorimetry
[3] = molar heat capacity at saturation pressure; conditions: Crystal 2, Vacuum adiabatic calorimetry

O=c1c2ccccc2oc2ccccc12 [9H-xanthen-9-one]
Conditions | Molar enthalpy of transition or fusion [kcal/mol]
[1] | 6.567

[2]
Conditions | molar entropy [J/K/mol]
5 K, Crystal 2 | 0.1497
10 K, Crystal 2 | 1.189
20 K, Crystal 2 | 7.009
30 K, Crystal 2 | 15.42
40 K, Crystal 2 | 24.67
50 K, Crystal 2 | 34.01
60 K, Crystal 2 | 43.17
70 K, Crystal 2 | 52.07
80 K, Crystal 2 | 60.7
90 K, Crystal 2 | 69.08
100 K, Crystal 2 | 77.26
120 K, Crystal 2 | 93.11
140 K, Crystal 2 | 108.46
160 K, Crystal 2 | 123.49
180 K, Crystal 2 | 138.32
200 K, Crystal 2 | 153.04
220 K, Crystal 2 | 167.73
240 K, Crystal 2 | 182.41
260 K, Crystal 2 | 197.12
280 K, Crystal 2 | 211.88
298.15 K, Crystal 2 | 225.36
300 K, Crystal 2 | 226.74
304.5 K, Crystal 1 | 230.12
304.5 K, Crystal 2 | 230.12
320 K, Crystal 1 | 241.19
340 K, Crystal 1 | 255.47
360 K, Crystal 1 | 269.69
380 K, Crystal 1 | 283.87
400 K, Crystal 1 | 298
420 K, Crystal 1 | 312.06
440 K, Crystal 1 | 326.08
448.8 K, Crystal 1 | 332.22
448.8 K, Liquid | 393.44
460 K, Liquid | 402.2
480 K, Liquid | 417.58
500 K, Liquid | 432.68
520 K, Liquid | 447.51

Conditions | mass density [kg/m3]
[2], 473 K, Liquid, Pycnometric method | 1090

Conditions | Triple point temperature [K] | molar heat capacity [J/K/mol]
[2], Crystal 1 | 448.8 | –
[2], Crystal 2 | 304.5 | –
[3], 4.948 K | – | 0.4157
[3], 5 K | – | 0.449
[3], 5.884 K | – | 0.7317
[3], 6.774 K | – | 1.131
[3], 7.756 K | – | 1.68
[3], 8.886 K | – | 2.494
[3], 10 K | – | 3.475
[3], 10.01 K | – | 3.492
[3], 11.15 K | – | 4.606
[3], 12.42 K | – | 5.895
[3], 13.82 K | – | 7.574
[3], 15.41 K | – | 9.42
[3], 17.21 K | – | 11.62
[3], 19.14 K | – | 14.03
[3], 20 K | – | 15.07
[3], 21.27 K | – | 16.62
[3], 23.69 K | – | 19.61
[3], 26.45 K | – | 22.93
[3], 29.52 K | – | 26.48
[3], 30 K | – | 27.03
[3], 32.99 K | – | 30.34
[3], 36.76 K | – | 34.3
[3], 40 K | – | 37.43
[3], 40.81 K | – | 38.18
[3], 45.21 K | – | 42.3
[3], 49.99 K | – | 46.39
[3], 50 K | – | 46.4
[3], 55.3 K | – | 50.63
[3], 60 K | – | 54.19
[3], 61.27 K | – | 55.12
[3], 67.42 K | – | 59.55
[3], 70 K | – | 61.32
[3], 74.05 K | – | 64.05
[3], 80 K | – | 68.05
[3], 81.42 K | – | 68.99
[3], 89.28 K | – | 74.02
[3], 90 K | – | 74.5
[3], 97.77 K | – | 79.43
[3], 100 K | – | 80.83
[3], 107.1 K | – | 85.28
[3], 116.86 K | – | 91.41
[3], 120 K | – | 93.39
[3], 126.79 K | – | 97.69
[3], 136.84 K | – | 104.11
[3], 140 K | – | 106.16
